Data taken from US11612652B2, “Lipids as synthetic vectors to enhance antigen processing and presentation ex-vivo in dendritic cell therapy” (PDS Biotechnology Corporation, priority 2015, dated 2023).
Entries after “also recorded” stand apart in the source; their conditions may differ.

How the values were obtained:
BMDC / OT-1 CD8+ T cells = experiment: OT1 T cell proliferation (3H-thymidine uptake), cross-presentation of OVA by BMDC on MHC class I; type: cell-based, mouse; conditions: for uptake and cross-presentation of OVA by BMDC, OT1 proliferation, CPM of 3H-thymidine uptake: whole OVA and various lipid concentrations, 30 min, three day culture
Experimental: In the second method, T cells from a TCR transgenic mice (OT-1) were used in which all T cells are specific for an internal peptide of OVA. These T cells will only proliferate if presented with DC which have processed OVA and presented an OVA peptide on MHC class I molecules.
Thus, this represents a stringent assay for cross presentation. BMDC were incubated with different concentrations of the whole OVA protein in the presence or absence of two cationic lipids, either DOTAP or DOTMA for 1 hr at 37° C. The DC were then washed, fixed and added to the OVA peptide specific T cells. […] This response was dose dependent with respect to the OVA concentration, and was even apparent when DC were incubated with OVA at 4° C.
To examine the effect of other cationic lipids and neutral lipids on antigen uptake and cross presentation, BMDC were incubated in the presence of the whole OVA protein and various concentrations of DOTAP DOTMA, DOPC, DOEPC or DDA for 30 min at 37° C. or 4° C. DC were then washed and added to OT1 splenocytes (TCR transgenic T cells specific for the class I restricted OVA peptide […] (SEQ ID NO: 2)) in microtiter plates and cultured for three days at 37° C. […] Control cultures contained OT1 splenocytes and […] (SEQ ID NO: 2) only which bypasses the need for antigen processing.

[1] = previous reported studies; cited from earlier work
TC-1 tumors = experiment: Established TC-1 tumor model: tumor microenvironment, tumor volume, ELISPOT; type: in vivo, C57 mice
Experimental: C57 mice were divided into the following groups of 8 mice per group: R-DOTAP+HPV16 E7 peptide KF18 ([…]) (SEQ ID NO: 4) , GM-CSF+HPV16 E7 peptide KF18, R-DOTAP, GM-C SF, HPV16 E7 peptide KF18, untreated. 1×10^5 TC-1 tumor cells were injected into the flank of the mice on day 0. The various formulations were administered on Days 12 and 19 after tumor implantation. On day 19 4-5 mice per group were sacrificed and a number of evaluations performed to evaluate the immunology of the tumor microenvironment.
RF9 specific dextramer staining and flow cytometry were utilized to quantify the number of HPV-specific CD8+ T-cells that had infiltrated into the tumor micro-environment. The study quantified the number of CD8+ T cells specific to the mouse epitope RF9. These CD8+ T cells were measured as a percentage of all immune cells (CD45, CD3 and CD8) present in the tumor. Antigen specific T cells infiltrating into the tumor were measured using RF9 specific dextramers by flow cytometry. […] Data represents mean±SEM of 4-5 mice in each group.
On Day 19 flow cytometry was used to study the immuno-suppressive tumor microenvironment, specifically the regulatory T cell population. T regulatory cells (CD45+CD3+CD4+CD25+Foxp3+) cells infiltrated into tumors on day 14 and day 19.
Of critical importance to the clinical efficacy of any immunotherapy is the ratio of immune suppressive cells to tumor targeting CD8+ T cells within the tumor microenvironment. A lower ratio of immune suppressor cells to CD8+ T cells promotes improved prognosis for anti-tumor benefit. […] Cationic lipids appear to promote the preferential expansion of the right phenotype of effector T-cells in preference to Tregs.
The various formulations were evaluated for their impact on the established TC-1 tumors in the same study. […] Tumor volumes were measured using calipers. The naïve mice group are tumor bearing mice that remained untreated. The HPV16 E7 peptide used in the vaccine is KF18. […]
In this study, IFN-γ ELISPOT studies were also performed to quantify and understand the “quality” of tumor-specific T-cell generated. […]

[2] = test system: BMDC (CD11c positive cells); experiment: DQ-OVA uptake and processing by BMDC, flow cytometry; type: cell-based, mouse; conditions: for enhancement of DQ-OVA uptake and processing compared with known adjuvants (red fluorescence): one hour, 25 μM DOTAP nanoparticles, 10 μg/ml LPS or media alone
Experimental: In order to determine the effects of cationic lipids on antigen uptake and processing by dendritic cells ex-vivo, a fluorescent ovalbumin protein called DQ-OVA was used. DQ-OVA is non-fluorescent when intact, but emits both red and green fluorescence when the protein is degraded. BMDC were incubated at 37° C. or 4° C. for 1 hr with DQ-OVA alone, or DQ-OVA mixed with different concentrations of the cationic lipid DOTAP. The cells were then washed, fixed, and stained with fluorescent antibodies to CD11c, a marker for dendritic cells. Cells were then analyzed on an LSRII flow cytometer in both red and green fluorescent channels.
This represents the well-known mannose receptor mediated uptake of OVA by DC. […] Graphical representation of the fluorescent uptake of DQ-OVA into BMDC measured by flow cytometry.
This uptake and processing was inhibited at 4° C. confirming that active cytoskeletal rearrangements are required for this type of uptake. […] The effect of R-DOTAP was concentration dependent with 50 uM showing the greatest effect. To determine if the R-DOTAP enhancement of protein uptake is cell dependent, a mouse epithelial cell line was incubated with DQ-OVA under identical conditions as the BMDC. […] Further, they indicate that this enhancement is selective for dendritic cells and not other, non-antigen presenting cell types.
In order to determine whether lipid adjuvants could mediate the same effect as R-DOTAP, BMDC were incubated with DQ-OVA in media alone or with R-DOTAP as described for FIG. 1. In addition, BMDC were incubated under identical conditions with the potent lipid adjuvant lipopolysaccharide (LPS). Mouse bone marrow DC were incubated in the presence of fluorescent DQ-OVA for one hour at either 37° C. or 4° C./azide in the presence of 25 μM DOTAP nanoparticles, 10 μg/ml LPS or media alone, and analyzed by flow cytometry. […] Monophorphoryl lipid-A (MPL) is a lower toxicity derivative of LPS that is now an FDA approved adjuvant in several vaccines.

[3] = test system: HPV16-specific CD8+ T-cells; experiment: IFN-gamma ELISPOT of splenocytes after vaccination with KF18 HPV peptide formulations; type: in vivo, C57 black mice; conditions: vaccinated Day 0 and Day 7, sacrificed Day 14
Experimental: C57 black mice were vaccinated with various formulations: […]
Group 1: KF18 HPV peptide ([…]) (SEQ ID NO: 4)
Group 2: KF18 HPV peptide+R-DOTAP liposomes
Group 3: KF18 HPV peptide+S-DOTAP liposomes
Group 4: KF18 peptide+MPL/Alum adjuvant
5 mice per group were injected with the various formulations. The mice were vaccinated on Day 0 and Day 7 and sacrificed on Day 14. The splenocytes were removed and ELISPOT studies performed. The splenocytes were stimulated with the peptide […] (RF9) (SEQ ID NO: 5), the HPV16 CD8+ T-cell epitope peptide recognized by the C57 mice. […] An additional example of this effect is observed with the cationic lipid DDA. […] However, it has been reported that in order to induce strong antigen-specific T-cell responses that DDA is used in combination with strong adjuvants (Brandt L. et al, ESAT-6 Subunit Vaccination against Mycobacterium tuberculosis, Infect Immun. 2000 February; 68(2): 791-795).

[4] = test system: serum cytokines and chemokines; experiment: Systemic cytokines in serum after vaccination, Luminex Mouse cytokine 20-plex panel; type: in vivo, Human HLA-A2 mice
Experimental: This study therefore focused on an evaluation of the systemic presence of cytokines after subcutaneous administration of cationic lipid vaccines. Human HLA-A2 mice that could recognize human HPV antigens were administered high and low doses of R-DOTAP+antigen.
Group 1: • Vaccinate mice with 100 μL of a 1:1 mixture of high dose R-DOTAP (3.4 mg/mL) and sucrose solution.
Group 2: • Vaccinate with 50 μg LPS as a positive control for cytokine induction
Group 3: • Vaccinate mice with 100 μL of high dose R-DOTAP+HPV antigens (1:1 Mixture of RDOTAP 3.4 mg/mL, and HPVMix 0.14 mg/mL)
Group 4: • Vaccinate mice with 100 μL of low dose R-DOTAP+HPV antigens (1:1 Mixture of RDOTAP 0.34 mg/mL, and HPVMix 0.14 mg/mL)
After a single vaccination all mice were bled as follows:
Approximately 200 μL of blood was withdrawn from each mouse at the above specified time points.
The cytokine analysis was performed by Luminex Assay following the manufacturer's instructions.
As a positive control, the mice were also vaccinated with the well-studied toll-like-receptor (TLR) agonist lipopolysaccharide (LPS).
Study Results:Mouse serum was analyzed using a Luminex Mouse cytokine 20-plex panel (cytokines listed below). Cytokine intensity levels were quantitated by comparing to a cytokine standard run in the same plate using Luminex software. […]

## CCCCCCCCCCCCCCCCCC[N+](C)(C)CCCCCCCCCCCCCCCCCC [DDA]
BMDC / OT-1 CD8+ T cells
  observation on dilution with OVA: formed a precipitate when diluted with OVA
  uptake and cross-presentation of OVA by BMDC, OT1 proliferation, CPM of 3H-thymidine uptake: facilitated enhanced uptake and cross-presentation of OVA by BMDC; also recorded: showed strong enhancement of antigen presentation; also recorded: facilitate antigen uptake and presentation
[1]
  in vivo antigen-specific immune responses: neither S-DOTAP nor DDA induced effective in vivo antigen-specific immune responses

## CCCCCCCC/C=C\CCCCCCCC(=O)OC[C@@H](COP(=O)(OCC)OCC[N+](C)(C)C)OC(=O)CCCCCCC/C=C\CCCCCCCC (stereo partly drawn) [DOEPC, 1,2-dioleoyl-sn-glycero-3-ethylphosphocholine]
BMDC / OT-1 CD8+ T cells
  uptake and cross-presentation of OVA by BMDC, OT1 proliferation, CPM of 3H-thymidine uptake: facilitated enhanced uptake and cross-presentation of OVA by BMDC; also recorded: showed strong enhancement of antigen presentation

## GQAEPDRAHYNIVTF [antigen only]
TC-1 tumors; Day 26, calipers
  tumor volume: about 200 mm^3
TC-1 tumors; formulations on Days 12 and 19, read Day 26
  effect on established TC-1 tumors: did not induce any tumor regression but inhibited tumor growth

## CCCCCCCC/C=C\CCCCCCCC(=O)OCC(C[N+](C)(C)C)OC(=O)CCCCCCC/C=C\CCCCCCCC (stereo not drawn) [DOTAP, 1,2-dioleoyl-3-trimethylammonium propane]
BMDC / OT-1 CD8+ T cells; BMDC with whole OVA, 1 hr at 37° C., washed, fixed
  cross presentation of OVA to CD8+ T cells, CPM of 3H-thymidine uptake: cross presented antigen to the CD8+ T cells much more strongly than DC incubated with OVA without cationic lipid
BMDC / OT-1 CD8+ T cells
  uptake and cross-presentation of OVA by BMDC, OT1 proliferation, CPM of 3H-thymidine uptake: facilitated enhanced uptake and cross-presentation of OVA by BMDC; also recorded: showed some enhancement
[2]; 37° C., 1 hr, versus DQ-OVA alone
  DQ-OVA uptake and processing, mean green fluorescence of CD11c positive cells: enhances antigen uptake and processing by DC

## CCCCCCCC/C=C\CCCCCCCC(=O)OCC(C[N+](C)(C)C)OC(=O)CCCCCCC/C=C\CCCCCCCC (stereo not drawn) [S-DOTAP, 1,2-dioleoyl-3-trimethylammonium propane]
BMDC / OT-1 CD8+ T cells
  uptake and cross-presentation of OVA by BMDC, OT1 proliferation, CPM of 3H-thymidine uptake: also facilitated uptake and presentation; also recorded: identical ability to promote antigen uptake, internalization and processing, as well as maturation of dendritic cells
[3]
  HPV-specific CD8+ T-cell response (ELISPOT, RF9 stimulation): did not result in an enhanced CD8+ T-cell response beyond what was seen with the peptide alone
[1]
  in vivo antigen-specific immune responses: neither S-DOTAP nor DDA induced effective in vivo antigen-specific immune responses

## lipopolysaccharide [LPS]
[4]; after vaccination
  time to systemic spike in cytokine levels: ≤ 12 h
[4]; single vaccination, pre bleed, 12, 24, 48 hours
  systemic induction of cytokines and chemokines in serum: increases in the systemic levels of IL-12, IP-10, KC, MCP-1 & MIG
[2]
  enhancement of DQ-OVA uptake and processing compared with known adjuvants (red fluorescence): no such enhancement was observed

## Monophorphoryl lipid-A [MPL, reference compound]
[3]
  HPV-specific CD8+ T-cell response (ELISPOT, RF9 stimulation): significantly lower CD8+ T-cell response compared to R-DOTAP
[2]
  enhancement of DQ-OVA uptake and processing compared with known adjuvants (red fluorescence): showed no ability to facilitate protein uptake in BMDC; also recorded: ineffective in promoting antigen uptake compared to both R-DOTAP and S-DOTAP

## CCCCCCCC/C=C\CCCCCCCC(=O)OC[C@H](COP(=O)([O-])OCC[N+](C)(C)C)OC(=O)CCCCCCC/C=C\CCCCCCCC [DOPC, reference compound]
BMDC / OT-1 CD8+ T cells
  uptake and cross-presentation of OVA by BMDC, OT1 proliferation, CPM of 3H-thymidine uptake: also facilitated uptake and presentation; also recorded: showed some enhancement
